Drawing on doi:10.1101/2025.05.02.651384v1 (biorxiv, 2025), this text covers EC50 for seven compounds.

The target in the first experiment is T1, HCAR1 (GPR81) (Homo sapiens, UniProt Q9BXC0). Description: ebBRET Gαz activation. Type of experiment: cell-based.
T1 sequence (Q9BXC0 whole entry): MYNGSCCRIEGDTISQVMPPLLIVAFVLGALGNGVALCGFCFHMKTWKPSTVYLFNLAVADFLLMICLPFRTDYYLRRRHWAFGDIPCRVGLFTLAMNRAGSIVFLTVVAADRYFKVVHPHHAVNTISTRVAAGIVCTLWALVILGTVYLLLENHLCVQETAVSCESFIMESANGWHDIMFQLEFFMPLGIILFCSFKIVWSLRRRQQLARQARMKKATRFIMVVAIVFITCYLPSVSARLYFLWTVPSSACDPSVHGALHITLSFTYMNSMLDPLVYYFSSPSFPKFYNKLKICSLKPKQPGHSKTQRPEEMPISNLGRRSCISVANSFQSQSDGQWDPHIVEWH
Details: not given
The compound `O=C(O)c1cc(O)cc(O)c1` [3,5-DHBA] had an EC50 of 0.2 µM.

`C[C@H](O)C(=O)O` [(+)-lactic acid] had an EC50 of 1000 µM.

Take `CN1CCN(C(=O)Cc2sc(NC(=O)[C@H]3CC[C@H](C)CC3)nc2-c2cccs2)CC1` [GPR81 agonist 1]: the response was half-maximal at 0.63 µM (EC50).

The target of another experiment is T1, HCAR1 (GPR81). The experiment is described as follows: ebBRET Gαi2 activation. Type of experiment: cell-based. As to conditions: Gαi2, 37 °C, agonist.
The compound `CCOc1cc(Cl)c(C(=O)NC(=O)Nc2ncc(C)s2)cc1N1CCOCC1` [AZ2053] registered an EC50 of 1.78 µM. This lies in the single-digit micromolar range.

On to `CCOc1cc(Cl)c(C(=O)NC(=O)Nc2nc3c(s2)CN(C(C)=O)CC3)cc1N1CCOCC1` [AZ4901], for which it took 7.1 µM to reach a half-maximal effect (EC50).

Consider `CCOc1cc(Cl)c(C(=O)NC(=O)Nc2nc3c(s2)CCCC3)cc1N1CCOCC1` [AZ9091], for which a half-maximal effect (EC50) was put at 2 µM.

`CCOc1cc(Cl)c(-c2ccc(-c3nc4ccccc4s3)c(=O)[nH]2)cc1N1CCOCC1` [AZ9234] returned a 50% effective concentration (EC50) of 6.8 µM.
